Literature values, collected in patent publication US6072029A, “Derivatives of human α1 -antitrypsin and process for their preparation” (priority 1984, dated 2000).
Read-outs that look alike come from different tables or passages of the source.

Test system: thrombin

Q: Which results are given for “α1 -AT: natural human α1-antitrypsin, serine protease inhibitor”?
A: inactivation of thrombin (increasing molar excess of α1-antitrypsin): completely inhibited; inactivation of thrombin (molar ratio of 1:1): weak and incomplete
